Source: the CombiSolv-Exp solvation set (Vermeire and Green 2021)

Experiment: solvent given as SMILES

CCCCCCN
Conditions | solvation free energy, 298 K [kcal/mol]
in CCCCCCC | -5.51
in O | -4

CC12C=CC(C1)C(C)(C)C2 (stereo not drawn)
Conditions | solvation free energy, 298 K [kcal/mol]
in O | 0.64

CCNc1ccccc1
Conditions | solvation free energy, 298 K [kcal/mol]
in O | -4.76

C=CC(C)(C)O
Conditions | solvation free energy, 298 K [kcal/mol]
in O | -4.19

CC1=CC2C(CC1)C2(C)C (stereo not drawn)
Conditions | solvation free energy, 298 K [kcal/mol]
in O | 0.78

CSc1nc(N=[N+]=[N-])nc(NC(C)C)n1
Conditions | solvation free energy, 298 K [kcal/mol]
in O | -8.19

CCOP(=S)(OCC)SCSP(=S)(OCC)OCC
Conditions | solvation free energy, 298 K [kcal/mol]
in O | -6.1

Cc1cc(C)nc(NS(=O)(=O)c2ccc(N)cc2)n1
Conditions | solvation free energy, 298 K [kcal/mol]
in O | -20

CC(=O)CCCC(C)C
Conditions | solvation free energy, 298 K [kcal/mol]
in NC=O | -4.76
in O | -3

CC(C)=CCCC1(C)C2CC3C(C2)C31C (stereo not drawn)
Conditions | solvation free energy, 298 K [kcal/mol]
in O | 0.55

C=C
Conditions | solvation free energy, 298 K [kcal/mol]
in Brc1ccccc1 | -0.52
in C1CCC2CCCCC2C1 | -0.46
in C1CCOC1 | -0.82
in C1COCCO1 | -0.58
in CC1CO1 | -0.89
in CC1COC(=O)O1 | -0.17
in CC#N | -0.62
in CC(=O)N(C)C | -0.45
in CC(C)(C)O | -0.49
in CC(C)=O | -0.76
in CC(C)CO | -0.46
in CC(C)O | -0.45
in CCC(C)O | -0.44
in CCCCC | -0.69
in CCCCCC | -0.64
in CCCCCCC | -0.62
in CCCCCCCC | -0.6
in CCCCCCCCC | -0.6
in CCCCCCCCCC | -0.57
in CCCCCCCCCCCCCCCC | -0.39
in CCCCCCCCO | -0.37
in CCCCCCCO | -0.43
in CCCCCCO | -0.43
in CCCCCO | -0.48
in CCCCO | -0.46
in CCCO | -0.52
in CCO | -0.56
in CCOCC | -0.97
in CN1CCCC1 | -0.32
in CN1CCCC1=O | -0.4
in CN(C)C=O | -0.45
in CN(C)P(=O)(N(C)C)N(C)C | -0.52
in CNC=O | -0.2
in CO | -0.51
in COC(C)=O | -0.75
in COCCOCCOCCOC | -0.25
in CS(C)=O | -0.05
in Cc1cccc(C)c1 | -0.61
in ClC(Cl)(Cl)Cl | -0.78
in ClCCCl | -0.49
in Clc1ccccc1 | -0.61
in N#Cc1ccccc1 | -0.45
in Nc1ccccc1 | -0.15
in O | 1.28
in O=C1CCCC1 | -0.6
in O=C1CCCCC1 | -0.55
in OCCCOCCCO | 0.06
in OCCO | 0.5
in OCc1ccccc1 | -0.23
in c1ccccc1 | -0.66

ClC(Cl)=C(c1ccc(Cl)cc1)c1ccc(Cl)cc1
Conditions | solvation free energy, 298 K [kcal/mol]
in CCCCCCCCC=CCCCCCCCC(=O)OCC(COC(=O)CCCCCCCC=CCCCCCCCC)OC(=O)CCCCCCCC=CCCCCCCCC | -12.8
in CCCCCCCCO | -13.2
in O | -3.78

CCOC(OCC)Oc1ccccc1
Conditions | solvation free energy, 298 K [kcal/mol]
in O | -5.23

c1ccc2c(c1)Nc1ccccc1S2
Conditions | solvation free energy, 298 K [kcal/mol]
in C1CCOC1 | -14.7
in C1COCCO1 | -14.4
in CC(C)(C)O | -12.7
in CC(C)CC(C)(C)C | -10.9
in CC(C)CC(C)O | -12.6
in CC(C)CCO | -12.8
in CC(C)CO | -12.6
in CC(C)O | -12.8
in CC(C)OC(C)C | -12.8
in CCC(C)CO | -12.7
in CCC(C)O | -12.8
in CCCC(C)CO | -12.8
in CCCC(C)O | -12.8
in CCCCC(CC)CO | -12.7
in CCCCCC | -11.1
in CCCCCCC | -11.2
in CCCCCCCC | -11.2
in CCCCCCCCCC | -11.2
in CCCCCCCCCCO | -13
in CCCCCCCCO | -13.1
in CCCCCCCO | -13.1
in CCCCCCO | -13.1
in CCCCCO | -13.1
in CCCCO | -13.1
in CCCCOCCCC | -12.7
in CCCO | -13.1
in CCCOC(C)=O | -13.9
in CCO | -13.2
in CCOCC | -13.5
in CO | -13.1
in COC(C)(C)C | -13.4

Cc1ccc2ccccc2c1
Conditions | solvation free energy, 298 K [kcal/mol]
in O | -2.18

C=CCC
Conditions | solvation free energy, 298 K [kcal/mol]
in C1CCCCC1 | -2.47
in CC#N | -1.86
in CC(C)(C)O | -2.03
in CC(C)CC(C)(C)C | -2.26
in CC(C)CCO | -1.99
in CC(C)CO | -1.98
in CC(C)O | -1.98
in CCC(C)(C)O | -2.1
in CCC(C)CO | -1.98
in CCC(C)O | -1.99
in CCC(O)CC | -2.01
in CCCC(C)O | -2.01
in CCCCC | -2.53
in CCCCCC | -2.49
in CCCCCCC | -2.48
in CCCCCCCC | -2.45
in CCCCCCCCC | -2.43
in CCCCCCCCCC | -2.42
in CCCCCO | -2.01
in CCCCO | -2.01
in CCCO | -2.01
in CN(C)C=O | -1.78
in CO | -1.83
in COC(C)=O | -2.21
in Cc1ccc(C)cc1 | -2.33
in Cc1cccc(C)c1 | -2.3
in Cc1ccccc1C | -2.31
in ClC(Cl)(Cl)Cl | -2.5
in O | 1.36
in O=CN1CCOCC1 | -1.28

ClC(Br)Br
Conditions | solvation free energy, 298 K [kcal/mol]
in CCCCCCCCO | -4.9

CCCCOC(C)=O
Conditions | solvation free energy, 298 K [kcal/mol]
in CC(=O)N(C)C | -5.24
in CC(C)CCCC(C)CCCC(C)CCCCC(C)CCCC(C)CCCC(C)C | -4.52
in CCCCC(CC)COC(=O)CCCCC(=O)OCC(CC)CCCC | -4.89
in CCCCCC | -4.94
in CCCCCCC | -4.92
in CCCCCCCC | -4.9
in CCCCCCCCC=CCCCCCCCC(=O)OCC(COC(=O)CCCCCCCC=CCCCCCCCC)OC(=O)CCCCCCCC=CCCCCCCCC | -5.07
in CCCCCCCCCC | -4.75
in CCCCCCCCCCCCCCCC | -4.52
in CCCCCCCCO | -5.01
in CCCCN(C=O)CCCC | -5.24
in CNC(C)=O | -5.14
in CO | -5.36
in NC=O | -4.07
in O | -2.65
in [2H]O[2H] | -2.76

C=C(C)C1CC=C(C)C(O)C1 (stereo not drawn)
Conditions | solvation free energy, 298 K [kcal/mol]
in O | -4.44

S
Conditions | solvation free energy, 298 K [kcal/mol]
in Brc1ccccc1 | -1.3
in C1CCC2CCCCC2C1 | -0.99
in CC1COC(=O)O1 | -1.49
in CC(=O)N(C)C | -2.25
in CC(C)=O | -1.9
in CCCCCCCCCCCCCCCC | -0.88
in CN1CCCC1=O | -2.2
in CN(C)C=O | -2.2
in CN(C)P(=O)(N(C)C)N(C)C | -2.64
in CO | -1.72
in COC(=O)CC#N | -1.35
in COCCOCCO | -1.91
in COCCOCCOC | -1.96
in COCCOCCOCCOC | -1.84
in COCCOCCOCCOCCOC | -1.97
in CS(C)=O | -2.04
in Clc1ccccc1 | -1.5
in Nc1ccccc1 | -1.7
in O | -0.65
in O=CN1CCOCC1 | -1.81
in OCCCOCCCO | -1.24
in OCCO | -1.17
in OCCOCCO | -1.34
in OCCOCCOCCO | -1.32
in OCc1ccccc1 | -1.35

O=S1OCC2C(CO1)C1(Cl)C(Cl)=C(Cl)C2(Cl)C1(Cl)Cl (stereo not drawn)
Conditions | solvation free energy, 298 K [kcal/mol]
in CCCCCCCCO | -13

O=[N+]([O-])c1ccc(O)c([N+](=O)[O-])c1
Conditions | solvation free energy, 298 K [kcal/mol]
in CCCCCC | -8.09
in CCCCCCC | -8.08
in CCCCCCCC | -8.05
in O | -7.61

Cc1cccc(Nc2ccccc2C(=O)O)c1C
Conditions | solvation free energy, 298 K [kcal/mol]
in O | -6.78

FC(F)=CCl
Conditions | solvation free energy, 298 K [kcal/mol]
in CCCCCCCC(=O)OCC(COC(=O)CCCCCCC)OC(=O)CCCCCCC | -1.77
in CCCCCCCCO | -1.69
in CN1CCCC1=O | -2.26
in CN(C)C=O | -1.99
in O | 0.52

C1CCCCCC1
Conditions | solvation free energy, 298 K [kcal/mol]
in CC(C)O | -4.24
in CCCCCCCCCCCCCCCC | -4.83
in CCCO | -4.27
in CN1CCCC1=O | -3.99
in CN(C)C=O | -3.79
in CS(C)=O | -3.1
in N#CCCCCC#N | -3.34
in NCCO | -2.41
in O | 0.79
in O=Cc1ccco1 | -3.85
in OCc1ccco1 | -3.74

CCC(O)C(C)C (stereo not drawn)
Conditions | solvation free energy, 298 K [kcal/mol]
in CC(C)CC(C)(C)C | -4.53
in CCCCCCCC | -4.72
in CCCCCCCCCC | -4.67
in O | -3.88

CC(C)(C)C
Conditions | solvation free energy, 298 K [kcal/mol]
in C1COCCO1 | -2.16
in CC(C)=O | -2.22
in CCCCCC | -2.77
in CCO | -2.2
in CO | -1.91
in O | 2.66
